Tests used:
[1] = NINCDS primary evaluation, overall classification; assay type: in vivo, mice; conditions: primary evaluation
Procedure: (§1) 1. Neurological Activity Tests. The biological testing program is designed to evaluate the following four aspects of drug action: (1) the existence and specificity of anticonvulsant activity; (2) the toxicity, particularly to the central nervous system; and, if the results of (1) and (2) are favorable, (3) the potency and protective index, a comparison between toxic and effective dose and (4) the time course of activity. Compounds were evaluated for anticonvulsant activity in two seizure models, the maximal electroshock seizure (MES) test and the subcutaneous pentylenetetrazol (Metrazol) seizure threshold (scMet) test.
(§2) Specific anticonvulsant evaluations performed by NINCDS using MES, scMet and Rotorod assays are presented in Tables III & IV for fourteen new compounds as well as several known compounds. Table III centers attention on 2-substituted-3-o-tolyl-4-(3H)-quinazolinones while Table IV includes the findings for various other 2,3-disubstituted-4(3H)-quinazolinones. As described earlier, the MES, scMet and Rotorod tests were performed one-half hour and four hours after administration of each compound. The tables identify the dosage level that elicited a positive result, such as protection against MES and scMet induced seizures, or loss of balance on the rotorod.

[2] = NINCDS rotorod ataxia test (minimal neurotoxicity); assay type: in vivo, mice
Procedure: as §1
Central nervous system toxicity was evaluated in the rotorod ataxia test. This test is designed to detect minimal neurotoxicity. The animal is placed on a 1-inch diameter knurled plastic rod rotating at 6 rpm. Normal mice can remain indefinitely on a rod rotating at this speed. Neurological deficit is defined as the failure of the animal to remain on the rod for at least 1 minute. This test has a clear end-point, is quantifiable and correlates well with the clinical assessment of minimal toxicity.
as §2
In the Secondary Evaluation, median effective doses (ED50) are determined in the MES, scMet and Rotorod assays using the procedures defined in Pharmacology, 95, 99-113 (1949). In addition, each compound's anticonvulsant activity and neurotoxicity over time are determined by measuring the effect of an intraperitoneally administered estimated median effective dose on maximal electroshock seizures and rotorod performance at intervals of 1/2, 1, 2, 3, 4, 6 and 8 hours.
(§3) Separate groups of animals are used for each time period. The times of peak toxic and anticonvulsant effect are taken from the resulting graph of percent of animals responding vs. time, and the determinations of median effective doses are performed at those times.

[3] = literature; cited from earlier work
[4] = NINCDS Subcutaneous Pentylenetetrazol (Metrazol) Seizure Threshold Test (scMet); assay type: in vivo, mice; conditions: for minimal effective dose: sc, read-out: scMet: dosage level that elicited protection
Procedure: (§4) 1. Neurological Activity Tests. […] Compounds were evaluated for anticonvulsant activity in two seizure models, the maximal electroshock seizure (MES) test and the subcutaneous pentylenetetrazol (Metrazol) seizure threshold (scMet) test.
Subcutaneous Pentylenetetrazol (Metrazol) Seizure Threshold Test (scMet) produces threshold (clonic) seizures. Pentylenetetrazol is administered subcutaneously as a threshold 0.5% solution (in 0.9% sodium chloride) in a loose fold of skin on the back of the neck in a dose of 85 mg/kg. […] Metrazol is given 10 minutes before the beginning of the test to allow for the delay in onset of Metrazol action. The animal is observed for 30 minutes. Failure to observe even a threshold seizure (a single episode of clonic spasms at least 5 seconds in duration) is defined as protection and indicates anticonvulsant activity in the test compound. These two methods of seizure provocation reliably elicit well-characterizied seizure phenomena.
(§5) The ability of a compound to prevent maximal electroshock seizures is believed to correlate with its ability to prevent the spread of seizure discharge through neural tissue. Activity against maximal electroshock seizures is thought to indicate potential efficacy in the treatment of major motor (grand mal) seizures. […] Selective action in the test is believed to indicate potential efficacy against absence (petit mal) seizures.
(§6) As described earlier, the MES, scMet and Rotorod tests were performed one-half hour and four hours after administration of each compound.
(§7) In the Secondary Evaluation, median effective doses (ED50) are determined in the MES, scMet and Rotorod assays using the procedures defined in Pharmacology, 95, 99-113 (1949).
as §3

[5] = NINCDS Maximal Electroshock Seizure Test (MES); assay type: in vivo, mice; conditions: for minimal effective dose: read-out: MES: dosage level that elicited protection
Procedure: as §4
The Maximal Electroshock Seizure Test was performed according to the method described by Swinyard and coworkers,* wherein a drop of 0.9% saline is instilled in each eye prior to application of corneal electrodes. Seizures are elicited with a 50 Hz alternating current of 50 mA (5 to 7 times that necessary to elicit minimal electroshock seizures) delivered for 0.2 sec via corneal electrodes. This stimulus will produce a maximal seizure in all normal mice. The maximal seizure typically consists of a short period of initial tonic flexion and a prolonged period of hind limb tonic extension, followed by terminal clonus. The seizure lasts about 22 seconds. Abolition of the hind limb tonic extensor component of the seizure is defined as protection and indicates anticonvulsant activity in the test compound.
as §5, §6, §7, §3

[6] = NPP maximal electroshock seizure (MES) protection; assay type: in vivo, white male mice of the Carworth Farm Strain CF-1; conditions: Mus musculus, ip; conducted at 30 mg/kg i.p.
Procedure: (§8) The procedures for the determination of a neuropharmacological profile involved white male mice of the Carworth Farm Strain CF-1 weighing 18 to 22 grams. […] Intraperitoneal injections were administered in logarithmic progression and sequentially. The dose levels employed routinely were 10, 30, 100 and 300 mg/kg, using four male mice at each dose level. Since this test was conducted in a sequential manner, the first does administered was at 300 mg/kg. […] Approximately thirty-eight signs and symptoms of pharmacological activity can be identified.
(§9) Since this is a general CNS screening procedure, only peak effects were recorded. Certain measures of behavior and neurological deficit were scored in terms of intensity of effect, while most others were determined on an all or none basis. Thus, in scoring measures which were normally present, e.g., spontaneous activity and skin color, an increase in score from 4 to 8 was used to denote stimulation or enhancement of skin color, whereas a decrease in score from 4 to 0 indicated depression or cyanosis. For scoring measures normally absent, e.g., depression, righting reflex and ataxia, activity was reflected as an increase in score from 0 to 8. The 0 to 8 scale was rounded off so that the actual ratings are only 0, 2, 4, 6 and 8. The compounds were also evaluated for anticonvulsant activity by using the maximal electroshock seizure (MES) test. In the MES study, four mice were dosed intraperitoneally at 100 mg/kg and challenged thirty minutes later with 50 mA, 0.2 second duration of electroshock. A protection ratio (number of mice protected from tonic extension .div. number of mice tested) was then established.
(§10) Scores for behavioral symptoms, including depression, righting reflex and ataxia, are the actual numbers reported. Protection against MES is reported as a percentage. Since four animals were involved in this test, the findings are 0% for none protected, 25% for one out of four, etc. […] In order to maintain reasonable uniformity in the reporting of results, each entry corresponds to a dosage level of 100 mg/kg. Any variations from that dosage are indicated.

[7] = literature; cited from earlier work; remark: listed apart in the source
[8] = literature, mice; cited from earlier work
[9] = NPP lethality (estimated LD50); conditions: mouse, in vivo, ip
Procedure: as §8
(§11) The animals were observed continously for one hour and, if no signs of pharmacological or toxicological activity were present at the end of the first hour, they were intermittently checked for activity every fifteen minutes thereafter for two consecutive hours. […] The observation period began immediately following the injection and the animals were then continuously observed for three hours and intermittently checked thereafter for forty-eight hours. The animals were observed and signs and symptoms of pharmacological activity were recorded continuously until no further symptoms developed and until the symptoms that appeared were no longer present. […] In such instances, the animals were observed beyond this period until they returned to normal. Routinely, the number of animals alive at the end of the forty-eight hour observation period was recorded and the LD50 estimated.
as §10

[10] = Neuropharmacological Profile (NPP): general CNS observational screen (depression, righting reflex, ataxia); conditions: at 30 mg/kg (value in parentheses), i.p., mice, score 0-8
Procedure: Representative compounds according to the present invention were tested for central nervous system activity by Pharmakon Laboratories of Scranton, Pennsylvania. The battery of general observational procedures used is referred to herein as a Neuropharmacological Profile (NPP). Additionally, representative compounds were tested in the Anticonvulsant Screening Project of the National Institutes of Neurological and Communicative Disorders and Stroke (NINCDS) at the University of Utah under the direction of Dr. Ewart A. Swinyard.
as §8, §11
The animals are free to move about for evaluation of spatial orientation, alertness and spontaneous motor activity.
as §9
At the termination of the test, the results were recorded and tabulated.
as §10

[11] = literature; cited from earlier work; remark: listed apart in the source
[12] = after 4 hr (value in parentheses)
[13] = Mus musculus, after 4 hr (value in parentheses)
[14] = Mus musculus, ip, after 4 hr (value in parentheses)
[15] = Mus musculus, ip, secondary evaluation, at time of peak effect

| Compound | toxicity remark (footnote a to NINCDS classification) [1] | Rotorod: dosage level that elicited loss of balance ([2]; after 0.5 hr) [mg/kg] | Rotorod: dosage level that elicited loss of balance [2, 12] [mg/kg] | anticonvulsant activity (in words) [3] | minimal effective dose ([4]; Mus musculus, after 0.5 hr) [mg/kg] | minimal effective dose [4, 13] [mg/kg] | effectiveness in protection against scMet induced seizures, comparison methaqualone/mecloqualone ([4]; primary evaluation) | minimal effective dose [5, 14] [mg/kg] | responders at 30 mg/kg [6] [%] | TD50 ([2]; mouse, in vivo, ip, secondary evaluation, at time of peak effect) [mg/kg] | sedative-hypnotic / hypnotic / depressant activity (in words) [7] | prevention of pentylenetetrazol induced convulsive seizures (in words) [8] | ED50 [4, 15] [mg/kg] | LD50 at 48 h [9] [mg/kg] | CNS Depression [10] | minimal effective dose ([5]; Mus musculus, ip, after 0.5 hr) [mg/kg] | ED50 [5, 15] [mg/kg] | activity in the MES test, comparison methaqualone/mecloqualone ([5]; primary evaluation) | protection against maximal electro-shock seizures (in words) [11] |
| --- | --- | --- | --- | --- | --- | --- | --- | --- | --- | --- | --- | --- | --- | --- | --- | --- | --- | --- | --- |
| Cc1nc2ccccc2c(=O)n1-c1ccccc1Cl [mecloqualone, 2-methyl-3-o-chlorophenyl-4(3H)-quinazolinone, reference compound] | Extremely toxic | 30 | 100 | better anticonvulsant agent than methaqualone | 30 | 100 | more effective in protection against scMet induced seizures | 300 |  |  |  |  |  |  |  |  |  |  |  |
| Cc1ccccc1-n1c(C)nc2ccccc2c1=O [methaqualone, 2-methyl-3-o-tolyl-4(3H)-quinazolinone, reference compound] |  | 100 | 300 |  | 100 | 300 |  | 300 | 0 | 55 | comparable to short-acting barbiturates in terms of sedative-hypnotic activity | superior to sodium phenobarbitone | 33.5 | > 562 | 8 | 100 | 52 | more active in the MES test |  |
| CCC1(c2ccccc2)C(=O)NC(=O)NC1=O [phenobartital] |  |  |  |  |  |  |  |  |  |  |  |  |  |  |  |  |  |  | better protector against maximal electro-shock seizures (MES) then methaqualone |
